This is an account of results in US20240270730A1, “DRG-MDM2-2 FOR USE AS A NOVEL MOUSE DOUBLE MINUTE 2 (MDM2) INHIBITOR” (BAHCESEHIR UNIVERSITESI, priority 2020, published 2024).

The subject of one experiment is MDA-MB231 cell lines. Nature of the experiment: MTT cell viability assay (IC50). It is filed as cell-based. Particulars: Homo sapiens, MDA-MB-231; MDA-MB231 cells; single dose of treatment; concentrations 10-9 to 104 M; 570 nm absorbance; FIG. 1; read-out: IC50 (half-maximal inhibitory concentration), MTT cell viability. Here is the method: HCT 116 colon cancer and MDA-MB231 breast cancer cell lines are used in cell culture experiments.
Cells were treated with high-glucose DMEM medium (Biosera) supplemented with 10% FBS (Gibco) and 1× penicillin/streptomycin (Multicell). The assay was designed to contain 10,000 cells for each well of 24-well cell culture plates before being treated with inhibitors.
Compound of formula I was dissolved with DMSO as 20 mM stock. 24 hours later, the solution was diluted in DMEM with 10% FBS and final concentration of vehicle DMSO was 0.5% at maximum. Therefore, the vehicle group included 0.5% DMSO concentration in experiments. Intensive cultivation of cells causes a decrease in proliferation capacity.
The MTT cell viability assay was used to detect values of half-maximal inhibitory concentration (IC50). Different concentrations of compound of formula I ranging between 10-9 to 104 M were tested on MDA-MB231 cell lines with single dose of treatment. 570 nm absorbance values were recorded and IC50 values were calculated by dose response—inhibition curves and nonlinear regression analysis on Graphpad Prism 8 software.

The target of another experiment is MDM2 protein (Homo sapiens, UniProt Q00987). To be noted: compared with a natural p53 peptide; cited from earlier work.
Sequence of MDM2 protein (Q00987 whole entry, species assumed): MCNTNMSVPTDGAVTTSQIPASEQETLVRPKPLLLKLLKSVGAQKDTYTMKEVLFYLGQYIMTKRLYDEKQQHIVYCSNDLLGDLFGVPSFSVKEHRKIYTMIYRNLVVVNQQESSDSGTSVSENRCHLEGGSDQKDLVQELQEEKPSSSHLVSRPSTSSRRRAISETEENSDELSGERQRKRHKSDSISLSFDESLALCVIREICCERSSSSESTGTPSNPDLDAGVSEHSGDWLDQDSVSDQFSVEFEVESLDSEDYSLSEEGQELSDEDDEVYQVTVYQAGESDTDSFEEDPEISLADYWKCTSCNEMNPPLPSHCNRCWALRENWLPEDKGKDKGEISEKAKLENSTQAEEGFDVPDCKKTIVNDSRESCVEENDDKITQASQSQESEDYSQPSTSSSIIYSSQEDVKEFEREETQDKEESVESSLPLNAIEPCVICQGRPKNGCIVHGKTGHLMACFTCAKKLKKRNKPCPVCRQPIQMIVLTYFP

As to `O=C(NCc1nc(-c2ccccc2)no1)NC(Cc1c[nH]c2ccccc12)C(=O)O` (centres unmarked) [compound of formula I], the IC50 with MDA-MB231 cell lines was 891 nM.

On to MI-319, for which the “binding affinity to MDM2 protein relative to natural p53 peptide” value on MDM2 protein is listed as 500 fold.
